We go through three compounds from patent publication US20070243146A1, “Vitamin K1 as Energizer in Cosmetic Formulations” (priority 2004, published 2007).

One experiment concerns eukaryotic cell lines. Conditions: cited from earlier work.
Experiment [1] has as its system human primary fibroblasts. Description: In vitro analysis of ATP levels in human epidermal fibroblasts (ViaLight Plus ATP assay). It counts as cell-based. As for the experimental part: The biological endpoint in the example is the energy level of each individual cell. This is determined quantitatively by the level of adenosine triphosphate (ATP), which is the common energy storage molecule in human cells.
Primary epidermal fibroblast were isolated from human foreskin and cultured in DMEM with 10% fetal-bovine serum-(FBS), penicillin, and streptomycin. The cells were maintained in a growth chamber at 37° C. and 5% CO2 and used for these kinds of experiments between passage 8 and 12. Fibroblasts were transferred to 96 well plates and allowed to attach for 5 h in standard medium before a serum starvation with 1% FBS over 4 days was initiated.
Epidermal fibroblasts were treated between 4 h and 48 h with vitamin K1 at concentrations up to 44 μM in DMEM. After variing incubation time, the ATP-assay was performed with the High Sensitivy Cell Proliferation Assay (Via light Plus, Cambrex). The procedure was done according to the manufacturers recommendations. Briefly, the culture plate was removed from the incubator and was allowed to cool down to room temperature for at least 5 minutes, then 50 μl of Cell Lysis Reagent were added to each well and incubated 10 minutes, 100 μl of AMR PLUS were added to each well and incubated for 2 minutes at room temperature. The plate was analysed in a luminometer.

The conditions of experiment [2]: 45 mg/day, women with osteoporosis; cited from earlier work.

Regarding `COC1=C(OC)C(=O)C(C/C=C(\C)CC/C=C(\C)CC/C=C(\C)CC/C=C(\C)CC/C=C(\C)CC/C=C(\C)CC/C=C(\C)CC/C=C(\C)CC/C=C(\C)CCC=C(C)C)=C(C)C1=O` [coenzyme Q10], the “stimulation of cell growth via transplasma membrane electron transport” value in the experiment with eukaryotic cell lines is recorded as “able to stimulate these cells”.
On to `CC1=C(C/C=C(\C)CCC[C@H](C)CCC[C@H](C)CCCC(C)C)C(=O)c2ccccc2C1=O` [vitamin K1, phytomenadione], for which the “incubation time at which maximum stimulation of ATP levels is reached” value in experiment [1] (2 μM vitamin K1, serum-starved fibroblasts, FIG. 1) is “about 16 h”. Further, the “concentration with the most promising induction of ATP levels” value in experiment [1] (dose-response at two time points, no correlation to the time point, FIG. 2) is 2 µM. In addition, the “stimulation of cell growth via transplasma membrane electron transport” value in the experiment on eukaryotic cell lines was “no efficacy”.
As for menaquinone [vitamin K2], in experiment [2], the “effect on loss of bone mineral density” value is given as “slow down but not prevent a progressive loss of bone mineral density” and the “effect on risk of bone fractures” value is “reduce the risk of bone fractures”.
